The numbers were not newly measured in patent publication US6551555B2, “Apparatus with a chemical indicator for indicating exposure to an oxidative sterilant or disinfectant” (Ethicon, Inc., priority 1997, dated 2003), which cites them from elsewhere.

The conditions of the series: Sigma-Aldrich catalog number 229288.

`CN(C)c1ccc(C(=C2C=CC(=[N+](C)C)C=C2)c2ccc(N(C)C)cc2)cc1` [crystal violet]: the toxicity hazards entry was “toxic and may cause cancer, heritable genetic damage and irritate the eyes, respiratory system and skin”.
